What was measured:
[1] = system: neoplastic cell lines; details: in vitro; Monti et al., PAACR 1995 and 1997; cited from earlier work
[2] = system: C3H female mice; test: Lifetime incidence of cancer in normal C3H female mice given Tempol in drinking water; assay type: in vivo; details: FIG. 2
Excerpt: Female C3H mice were supplied through the Frederick Cancer Research Center-Animal Production, Frederick, Md. […] All groups were allowed food and water ad libitum. All groups were followed for their entire life span. Animals were sacrificed at the first sign of a visible tumor nodule, gross enlargement of spleen, or marked difficulty in breathing. The presence of tumor was confirmed histologically.

CC1(C)CC(O)CC(C)(C)N1[O] [Tempol, 4-hydroxy-2,2,6,6-tetramethylpiperidine-1-oxyl]
cytotoxicity against neoplastic cell lines [1]: cytotoxic
incidence of cancer (total number of tumors/group) compared to controls ([2]; Tempol 58 mM in drinking water for entire life span): four-fold reduction
incidence of cancer (total number of tumors/group) compared to both control groups ([2]; Tempol 58 mM in drinking water for one year): dramatically reduced the incidence of cancer
